Measurements: US10058558B2, “Pharmaceutical composition comprising N1-cyclic amine-N5-substituted biguanide derivatives as an ingredient for preventing or treating fibrosis” (ImmunoMet Therapeutics Inc., priority 2013, dated 2018)
Read-outs that look alike come from different tables or passages of the source.

Legend:
[1] = test system: peritoneal mesothelial cells
Method: That is, this experiment was designed to examine the morphological change in the peritoneal mesothelial cells by high glucose treatment along with the expression levels of mRNA and proteins of fibrosis-mediating materials and the ECM-related materials.
To this end, the peritonea of the male wistar rats were dissected and their peritoneal mesothelial cells were subjected to primary culture using 0.25% trypsin-EDTA. The experiment was performed after dividing them into the following three groups:

Snail = Snail expression in MCF7 cells (EMT-suppressing effect)

## CC(=O)O.N=C(NC(=N)N1CCCC1)Nc1ccc(OC(F)(F)F)cc1 [Example 44, N1-pyrrolidine-N5-(4-trifluoromethoxy)phenyl biguanide acetate [N-(N-(4-(trifluoromethoxy)phenyl)carbamimidoyl)pyrrolidine-1-carboximidamideacetate]]
[1]
  morphology of peritoneal mesothelial cells turned into myofibroblasts by high glucose treatment: returned to maintain a shape similar to that of the normal ones (a cobblestone shape)
Snail
  suppression of the expression of Snail: strongly suppress the expression of Snail

## CN(C)C(=N)N=C(N)N [metformin]
Snail; MCF7 cells, 1000 μM, FIG. 1
  suppression of the expression of Snail: failed to suppress the expression of Snail

## [H]/N=C(/N)N/C(=N/[H])NCCc1ccccc1 [phenformin]
Snail; MCF7 cells, 10 μM, FIG. 1
  suppression of the expression of Snail: did not show any effect regarding the suppression of Snail expression
